Measurements: patent US7018624B2, “Delivery of poly(ethylene glycol)-modified molecules from degradable hydrogels” (Debio Recherche Pharmaceutique S.A., priority 1996, dated 2006)

Assay: Hydrolysis kinetics of the ester linkages of mPEG-O-(CH2)n-COO-mPEG in buffer, followed by HPLC-GPC
Type: physicochemical
Protocol: To precisely measure the hydrolysis kinetics of the ester linkages, water-soluble, non-crosslinked mPEG-O—(CH2)n—COO-MPEG was synthesized as in Example 2. Hydrolysis was carried out in buffer solutions (0.1 M) at different pHs and temperatures, and followed by HPLC-GPC (Ultrahydrogel® 250, Waters).

mPEG-O-(CH2)n-COO-mPEG [CM ester linkage]
Hydrolysis half lives of the ester (pH 5.5): >150 days | Hydrolysis half lives of the ester (pH 8.1): 5 days
